Data on 9 compounds can be found in PubChem BioAssay (NCI).

Test systems include NCI-H226 lung; SW-620 colon; UACC-62 melanoma; CCRF-CEM leukemia; A498 renal; K-562 leukemia; SF-268 CNS; HCC-2998 colon; KM12 colon; UACC-257 melanoma.
Common to all, as to experiment: DTP human tumour cell line panel, 48 h

Where “and” joins values, the source holds several entries; their conditions need not be identical. Equal values may be shown once.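 Following 48 hours of exposure in 96-well plates, responses at five concentrations were used to interpolate endpoints linearly. GI50: concentration for 50% inhibition of growth. TGI marks complete inhibition of growth.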

On to `Cc1cccc2c(C3=C(c4cn(C)c5ccccc45)C(=O)NC3=O)cn(C)c12`, for which the GI50 in the assay on NCI-H226 lung was over 25 µM; in the assay with SW-620 colon, 12.7 µM; in the assay with UACC-62 melanoma, over 25 µM; in the assay with CCRF-CEM leukemia, over 18 µM; with A498 renal it was over 25 µM; with K-562 leukemia, over 19.7 µM. For the same compound, the GI50 was 13.6 µM with SF-268 CNS, over 25 µM in the assay with HCC-2998 colon, over 20.8 µM in the assay with KM12 colon and 24.8 µM in the assay on UACC-257 melanoma. Also, the TGI in the assay with NCI-H226 lung, in the assay on SW-620 colon, in the assay on UACC-62 melanoma, in the assay on CCRF-CEM leukemia, with A498 renal and with K-562 leukemia was over 25 µM each time. Also, the TGI in the assay with SF-268 CNS, in the assay on HCC-2998 colon, in the assay with KM12 colon and with UACC-257 melanoma was over 25 µM each time.
`CN(C)c1ccc(C(=S)c2ccc(N(C)C)cc2)cc1`: the GI50 is 22.2 µM in the assay on NCI-H226 lung; 3.98 µM in the assay with SW-620 colon; 4.47 µM in the assay on UACC-62 melanoma; 6.64 µM in the assay on CCRF-CEM leukemia; 3.16 µM in the assay on A498 renal; 3.61 µM in the assay with K-562 leukemia. The GI50 in the assay on SF-268 CNS was 10.1 µM; in the assay with HCC-2998 colon it was 9.66 µM; in the assay with KM12 colon, 3.88 µM; in the assay with UACC-257 melanoma, 16.2 µM. The TGI is over 100 µM with NCI-H226 lung; over 100 µM with SW-620 colon; over 100 µM in the assay with UACC-62 melanoma; over 100 µM in the assay on CCRF-CEM leukemia; 74.8 µM with A498 renal; over 100 µM in the assay with K-562 leukemia. Further, the TGI with SF-268 CNS, in the assay with HCC-2998 colon, with KM12 colon and with UACC-257 melanoma was over 100 µM in each case.
With `O=C1c2c(O)cccc2C(C(=O)CCCCCC(=O)C2c3cccc(O)c3C(=O)c3c(O)cccc32)c2cccc(O)c21`, the GI50 was 4.97 µM with NCI-H226 lung; 5.44 µM with SW-620 colon; 2.22 µM in the assay on UACC-62 melanoma; 2.05 µM in the assay on CCRF-CEM leukemia; 21 µM in the assay with A498 renal; 2.86 µM in the assay with K-562 leukemia. The GI50 with SF-268 CNS is 5.02 µM; in the assay on HCC-2998 colon it was 2.83 µM; in the assay with KM12 colon, 1.65 µM; in the assay with UACC-257 melanoma, 3.9 µM. Also, the TGI in the assay on NCI-H226 lung is 7.29 µM and 11.6 µM; with SW-620 colon, 25 µM and 14.5 µM; in the assay on UACC-62 melanoma, 5.26 µM and 9.46 µM; in the assay on CCRF-CEM leukemia, 25 µM and 13.6 µM; with A498 renal it was 10.9 µM and 37.6 µM; in the assay with K-562 leukemia it was 25 µM and 12.5 µM. The TGI with SF-268 CNS was 4.52 µM and 11.9 µM; with HCC-2998 colon it was 25 µM and 12.7 µM; with KM12 colon, 3.71 µM and 5.6 µM; in the assay on UACC-257 melanoma, 2.73 µM and 10.6 µM.
For the compound `Oc1ccc2ccccc2c1CCc1c(O)ccc2ccccc12`, the TGI in the assay on NCI-H226 lung stood at 33.2 µM; with SW-620 colon, 28.4 µM; in the assay with UACC-62 melanoma, 21.2 µM; in the assay on CCRF-CEM leukemia, 25.2 µM; in the assay with A498 renal, 38.2 µM; in the assay with K-562 leukemia, 24.9 µM. Moreover, the TGI in the assay with SF-268 CNS stood at 25.2 µM; in the assay with HCC-2998 colon, 21.8 µM; in the assay on KM12 colon it was 24.8 µM; in the assay on UACC-257 melanoma, 27.2 µM.
On to `NCCOc1ccc(/C(=C(/Cl)c2ccccc2)c2ccccc2)cc1`, for which the TGI amounted to 36.7 µM with NCI-H226 lung; 16.1 µM in the assay with SW-620 colon; 25.3 µM with UACC-62 melanoma; 24.6 µM in the assay with CCRF-CEM leukemia; 34.1 µM in the assay on A498 renal; 14.8 µM with K-562 leukemia. For the same compound, the TGI came out at 29.8 µM in the assay on SF-268 CNS, 14.8 µM in the assay on HCC-2998 colon, 16.7 µM in the assay with KM12 colon and 24.8 µM in the assay with UACC-257 melanoma.
As for `COc1cc2c(Oc3ccc(NC(=O)C4(C(=O)Nc5ccc(F)cc5)CC4)cc3F)ccnc2cc1OCCCN1CCOCC1`, the GI50 with NCI-H226 lung is 0.491 µM and 0.662 µM; in the assay with SW-620 colon, 0.346 µM and 0.311 µM; in the assay on UACC-62 melanoma it was 1.24 µM and 0.891 µM; with CCRF-CEM leukemia, 0.531 µM and 0.383 µM; in the assay on A498 renal, < 0.0462 µM and 0.383 µM; in the assay with K-562 leukemia it was 0.102 µM and 0.15 µM. Moreover, the GI50 in the assay with SF-268 CNS was 0.858 µM and 1.19 µM; in the assay on HCC-2998 colon it was 1.24 µM and 1.31 µM; in the assay on KM12 colon, 0.0177 µM and 0.0189 µM; in the assay with UACC-257 melanoma, 1.19 µM. Also, the TGI in the assay with NCI-H226 lung was 2.07 µM and 3.96 µM; in the assay with SW-620 colon, 1.85 µM and 2.6 µM; with UACC-62 melanoma, 2.72 µM and 2.48 µM; with A498 renal, 1.24 µM and 1.7 µM; in the assay on K-562 leukemia it was 1.78 µM and 1.33 µM; with SF-268 CNS it was 2.37 µM and 7.01 µM. The TGI in the assay with HCC-2998 colon is 2.62 µM and 4.31 µM; in the assay on KM12 colon, 1.44 µM and 2.28 µM; with UACC-257 melanoma, 2.78 µM.
For `C[C@H]1CCC/C=C/C2CC(OC(=O)CN(C)C)CC2C(OC(=O)CN(C)C)/C=C/C(=O)O1` (some centres undefined), the GI50 in the assay with NCI-H226 lung was 0.133 µM; in the assay on SW-620 colon, 0.318 µM; in the assay on UACC-62 melanoma, 0.443 µM; in the assay with CCRF-CEM leukemia, 0.647 µM; with A498 renal it was 0.0508 µM; in the assay on K-562 leukemia it was 3.29 µM. Also, the GI50 with SF-268 CNS was 0.484 µM; in the assay on HCC-2998 colon, 0.215 µM; in the assay with KM12 colon it was 0.198 µM; in the assay on UACC-257 melanoma, 0.342 µM. The TGI was 0.44 µM in the assay with NCI-H226 lung; 1.95 µM in the assay with SW-620 colon; over 65.4 µM in the assay with UACC-62 melanoma; over 40.6 µM in the assay on CCRF-CEM leukemia; 0.282 µM in the assay on A498 renal; over 100 µM in the assay on K-562 leukemia. Moreover, the TGI with SF-268 CNS is over 100 µM; in the assay with HCC-2998 colon, 0.537 µM; in the assay on KM12 colon, 1.31 µM; in the assay with UACC-257 melanoma, 27.5 µM.
For `CC(Oc1cc2oc(=O)cc(-c3ccccc3)c2cc1Cl)C(=O)O` (centres undefined), the TGI in the assay with NCI-H226 lung, with SW-620 colon, with UACC-62 melanoma, with CCRF-CEM leukemia, in the assay on A498 renal and with K-562 leukemia was over 100 µM in each case. For the same compound, the TGI in the assay with SF-268 CNS, with HCC-2998 colon, in the assay on KM12 colon and in the assay on UACC-257 melanoma was over 100 µM throughout.
With `O=C(CCc1nc(=S)[nH][nH]1)Nc1cc(Cl)ccc1Cl`, the TGI in the assay on NCI-H226 lung, in the assay with SW-620 colon, in the assay with UACC-62 melanoma, in the assay with CCRF-CEM leukemia, in the assay on A498 renal and with K-562 leukemia was over 100 µM in each case. The TGI in the assay with SF-268 CNS, in the assay with HCC-2998 colon, in the assay on KM12 colon and in the assay on UACC-257 melanoma was over 100 µM in each case.
